Where a SMILES comes first, the peptide text is derived from it. Bridges are numbered along the chain shown (N, C = ends). Side-chain parts run from the residue outwards. [ ]: non-standard residue; d: D form. The star is where a group is joined. X5 = O=C(O)CN1CCN(CC(=O)O)CCN(CC(=O)N[C@@H](CS(=O)(=O)O)C(=O)N[C@@H](CCCCNC(=O)CCCc2ccc(Cl)cc2)C(=O)*)CCN(CC(=O)O)CC1; X1 = O=C(O)CN1CCN(CC(=O)O)CCN(CC(=O)N[C@@H](CS(=O)(=O)O)C(=O)N[C@@H](CCCCNC(=O)CCCc2ccc(I)cc2)C(=O)*)CCN(CC(=O)O)CC1; DOTA = O=C(O)CN1CCN(CC(=O)O)CCN(CC(=O)*)CCN(CC(=O)O)CC1; NMeLys(iPr) = CN[C@@H](CCCCNC(C)C)C(=O)O; 2Nal = N[C@@H](Cc1ccc2ccccc2c1)C(=O)O; Lys(iPr) = CC(C)NCCCC[C@H](N)C(=O)O; Cya = N[C@@H](CS(=O)(=O)O)C(=O)O
Experiment: in vivo
Parameters: species or system mice
Conditions: male, NOD.Cg-Rag1tm1Mom Il2rgtm1Wjl/SzJ (NRG), mouse, iv, total radioactivity
Procedure: The Z138 Mantle cell lymphoma cell line was purchased from the American Type Culture Collection (ATCC©CRL-3001). The cell line was cultured in a 5% CO2 atmosphere at 37° C. in a humidified incubator with IMDM medium supplemented with 10% fetal bovine serum, 100 I.U./mL penicillin, and 100 μg/mL streptomycin.
[^68Ga]GaCl3 was eluted from an iThemba Labs generator with a total of 4 mL of 0.1 M HCl. The eluted [^68Ga]GaCl3 solution was added to 2 mL of concentrated HCl. This radioactive mixture was then added to a DGA resin column and washed with 3 mL of 5 M HCl. The column was then dried with air and the [^68Ga]GaCl3 (0.10-0.50 GBq) was eluted with 0.5 mL of water into a vial containing a solution of the unlabeled precursor (25 μg) in 0.7 mL HEPES buffer (2 M, pH 5.3). The reaction mixture was heated in a microwave oven (Danby; DMW7700WDB) for 1 min at power setting 2. The mixture was purified by semi-prep HPLC and quality control was performed via analytical HPLC with the co-injection of the unlabeled standard with a one-twelfth of the radiotracer. Radiochemical yields (decay-corrected) were >50% and radiochemical purities were >95%.
Animal experiments were performed in accordance with guidelines established by the Canadian Council on Animal Care, under a research protocol approved by the Animal Ethics Committee of the University of British Columbia. For all studies, male NOD.Cg-Rag1tm1Momll2rgtm1Wjl/SzJ (NRG) mice were used and cells injected in a 100 μL solution of 1:1 ratio of PBS/Matrigel. For preclinical imaging and biodistribution studies, 5×10^6 cells of Z138, cells were subcutaneously inoculated on the left or right flank and tumors were grown to a size of 200-300 mm^3. […]
Under isoflurane anesthesia (2-2.5% isoflurane in 2 L/min 02), mice were injected intravenously with [^68Ga]Ga-BL34L6 or [^68Ga]Ga-BL34L7. Mice were euthanized by CO2 inhalation after anesthesia with isoflurane. Tissues were harvested, washed in PBS, patted dry, weighed, and then assayed radioactivity on a gamma counter. Counted radioactivities were converted to percentage injected dose per gram of tissue (% ID/g) using a calibration curve.

[1] = Biodistribution: Small Intestine

Compound | tissue uptake at 1 h (Biodistribution: Adrenals) | tissue uptake at 1 h (Biodistribution: Blood) | tissue uptake at 1 h (Biodistribution: Bone) | tissue uptake at 1 h (Biodistribution: Brain) | tissue uptake at 1 h (Biodistribution: Heart) | tissue uptake at 1 h (Biodistribution: Kidneys) | tissue uptake at 1 h (Biodistribution: Liver) | tissue uptake at 1 h (Biodistribution: Lungs) | tissue uptake at 1 h (Biodistribution: Muscle) | tissue uptake at 1 h (Biodistribution: Pancreas) | tissue uptake at 1 h [1] | tissue uptake at 1 h (Biodistribution: Spleen) | tissue uptake at 1 h (Biodistribution: Stomach) | tissue uptake at 1 h (Biodistribution: Testes) | tissue uptake at 1 h (Biodistribution: Z138 Tumor) | tissue to tissue ratio at 1 h (Ratio Tumor-to-Blood) | tissue to tissue ratio at 1 h (Ratio Tumor-to-Bone) | tissue to tissue ratio at 1 h (Ratio Tumor-to-Kidney) | tissue to tissue ratio at 1 h (Ratio Tumor-to-Muscle) | tissue to tissue ratio at 1 h (Ratio Tumor-to-Pancreas) | further results
CC(C)NCCCC[C@H](NC(=O)[C@H]1CCC(=O)N[C@@H](CCCCNC(=O)[C@H](CCCCNC(=O)CCCc2ccc(I)cc2)NC(=O)[C@H](CS(=O)(=O)O)NC(=O)CN2CCN(CC(=O)O)CCN(CC(=O)O)CCN(CC(=O)O)CC2)C(=O)N[C@@H](Cc2ccc(O)cc2)C(=O)N[C@@H](CCCCNC(C)C)C(=O)N[C@H](CCCNC(=N)N)C(=O)N[C@@H](Cc2ccc3ccccc3c2)C(=O)N[C@H](C)C(=O)N1)C(N)=O [[^68Ga]Ga-BL34L11, metal not drawn] (K(X1)Y[Lys(iPr)][dR][2Nal][dA][dE][Lys(iPr)]-NH2; lactam N-7) | 4.99 %ID/g | 18.7 %ID/g | 1.53 %ID/g | 0.29 %ID/g | 4.53 %ID/g | 5.39 %ID/g | 3.7 %ID/g | 8.36 %ID/g | 1.39 %ID/g | 1.67 %ID/g | 1.28 %ID/g | 2.35 %ID/g | 0.97 %ID/g | 2.14 %ID/g | 6.55 %ID/g | 0.35 | 4.32 | 1.27 | 4.85 | 3.91 | tissue uptake at 3 h (Biodistribution: Adrenals): 2.34 %ID/g; tissue uptake at 3 h (Biodistribution: Blood): 13.4 %ID/g; tissue uptake at 3 h (Biodistribution: Bone): 1.23 %ID/g; tissue uptake at 3 h (Biodistribution: Brain): 0.22 %ID/g; tissue uptake at 3 h (Biodistribution: Heart): 3.17 %ID/g; tissue uptake at 3 h (Biodistribution: Kidneys): 3.9 %ID/g; tissue uptake at 3 h (Biodistribution: Liver): 3.02 %ID/g; tissue uptake at 3 h (Biodistribution: Lungs): 6.64 %ID/g; tissue uptake at 3 h (Biodistribution: Muscle): 1.08 %ID/g; tissue uptake at 3 h (Biodistribution: Pancreas): 1.42 %ID/g; tissue uptake at 3 h [1]: 1.11 %ID/g; tissue uptake at 3 h (Biodistribution: Spleen): 2 %ID/g; tissue uptake at 3 h (Biodistribution: Stomach): 0.48 %ID/g; tissue uptake at 3 h (Biodistribution: Testes): 2.59 %ID/g; tissue uptake at 3 h (Biodistribution: Z138 Tumor): 11.3 %ID/g; tissue to tissue ratio at 3 h (Ratio Tumor-to-Blood): 0.85; tissue to tissue ratio at 3 h (Ratio Tumor-to-Bone): 10.3; tissue to tissue ratio at 3 h (Ratio Tumor-to-Kidney): 2.91; tissue to tissue ratio at 3 h (Ratio Tumor-to-Muscle): 10.5; tissue to tissue ratio at 3 h (Ratio Tumor-to-Pancreas): 7.95
CC(C)NCCCC[C@H](NC(=O)[C@H]1CCC(=O)N[C@@H](CCCCNC(=O)[C@H](CCCCNC(=O)CCCc2ccc(Cl)cc2)NC(=O)[C@H](CS(=O)(=O)O)NC(=O)CN2CCN(CC(=O)O)CCN(CC(=O)O)CCN(CC(=O)O)CC2)C(=O)N[C@@H](Cc2ccc(O)cc2)C(=O)N[C@@H](CCCCNC(C)C)C(=O)N[C@H](CCCNC(=N)N)C(=O)N[C@@H](Cc2ccc3ccccc3c2)C(=O)N[C@H](C)C(=O)N1)C(N)=O [[^68Ga]Ga-BL34L16, metal not drawn] (K(X5)Y[Lys(iPr)][dR][2Nal][dA][dE][Lys(iPr)]-NH2; lactam N-7) | 1.63 %ID/g | 7.27 %ID/g | 2.65 %ID/g | 0.11 %ID/g | 1.66 %ID/g | 3.56 %ID/g | 2.61 %ID/g | 5.9 %ID/g | 0.61 %ID/g | 0.76 %ID/g | 0.86 %ID/g | 2.48 %ID/g | 0.26 %ID/g | 1.16 %ID/g | 10.1 %ID/g | 1.38 | 6.11 | 2.83 | 16.8 | 13.6 | tissue uptake at 3 h (Biodistribution: Adrenals): 0.7 %ID/g; tissue uptake at 3 h (Biodistribution: Blood): 2.7 %ID/g; tissue uptake at 3 h (Biodistribution: Bone): 2.01 %ID/g; tissue uptake at 3 h (Biodistribution: Brain): 0.06 %ID/g; tissue uptake at 3 h (Biodistribution: Heart): 0.67 %ID/g; tissue uptake at 3 h (Biodistribution: Kidneys): 2.2 %ID/g; tissue uptake at 3 h (Biodistribution: Liver): 2.33 %ID/g; tissue uptake at 3 h (Biodistribution: Lungs): 2.85 %ID/g; tissue uptake at 3 h (Biodistribution: Muscle): 0.32 %ID/g; tissue uptake at 3 h (Biodistribution: Pancreas): 0.31 %ID/g; tissue uptake at 3 h [1]: 0.41 %ID/g; tissue uptake at 3 h (Biodistribution: Spleen): 2.05 %ID/g; tissue uptake at 3 h (Biodistribution: Stomach): 0.16 %ID/g; tissue uptake at 3 h (Biodistribution: Testes): 0.68 %ID/g; tissue uptake at 3 h (Biodistribution: Z138 Tumor): 15.2 %ID/g; tissue to tissue ratio at 3 h (Ratio Tumor-to-Blood): 5.74; tissue to tissue ratio at 3 h (Ratio Tumor-to-Bone): 19.3; tissue to tissue ratio at 3 h (Ratio Tumor-to-Kidney): 6.92; tissue to tissue ratio at 3 h (Ratio Tumor-to-Muscle): 50.4; tissue to tissue ratio at 3 h (Ratio Tumor-to-Pancreas): 50.7
CC(C)NCCCC[C@H](NC(=O)[C@H]1CCC(=O)N[C@@H](CCCCNC(=O)[C@H](CS(=O)(=O)O)NC(=O)CN2CCN(CC(=O)O)CCN(CC(=O)O)CCN(CC(=O)O)CC2)C(=O)N[C@@H](Cc2ccc(O)cc2)C(=O)N(C)[C@@H](CCCCNC(C)C)C(=O)N[C@H](CCCNC(=N)N)C(=O)N[C@@H](Cc2ccc3ccccc3c2)C(=O)N[C@H](C)C(=O)N1)C(N)=O [[^68Ga]Ga-BL34N1, metal not drawn] (K([Cya-DOTA])Y[NMeLys(iPr)][dR][2Nal][dA][dE][Lys(iPr)]-NH2; lactam N-7) | 0.17 %ID/g | 0.32 %ID/g | 0.13 %ID/g | 0.02 %ID/g | 0.12 %ID/g | 2.7 %ID/g | 0.71 %ID/g | 0.44 %ID/g | 0.09 %ID/g | 0.08 %ID/g | 0.19 %ID/g | 0.26 %ID/g | 0.05 %ID/g | 0.18 %ID/g | 12 %ID/g | 37.7 | 92.2 | 4.6 | 157 | 146 | –

Source: US20250242064A1, “CXCR4-TARGETING COMPOUNDS, AND METHODS OF MAKING AND USING THE SAME” (PROVINCIAL HEALTH SERVICES AUTHORITY, priority 2022, published 2025)
